The test system of test [1] is homozygous diploid strain containing a PDR5 deletion mutation (strain #32409, S04). The test is described as follows: Growth yield (OD600) of homozygous diploid PDR5 deletion strain in YPD medium with butanol. It counts as cell-based, Saccharomyces cerevisiae. The settings on record: for OD600 after 23 hours incubation with 1-butanol / OD600 after 24 hours incubation with isobutanol: diploid PDR5 mutant, YPD, 30° C., inoculum OD600 0.01, average +/- SD; for growth yield of strain with the PDR5 deletion compared to BY4743: diploid.

The test system of test [2] is diploid parental strain BY4743. The settings on record: YPD, 30° C., inoculum OD600 0.01, average +/- SD.
Method: The inoculum OD600 was 0.01. The OD600 of each culture was measured after 24 hours incubation on a roller drum at 30° C. Triplicate cultures of each strain were tested. The average and standard deviation of the 24 hour growth yield measurements in each isobutanol concentration are given in Table 5.
The inoculum OD600 was 0.01. The OD600 of each culture was measured after 23 hours incubation on a roller drum at 30° C. Triplicate cultures of each strain were tested.
The test system of test [3] is parental strain BY4741. The test is described as follows: Growth yield (OD600) of haploid parental strain in YPD medium with isobutanol. It counts as cell-based, Saccharomyces cerevisiae. The settings on record: 30° C., inoculum OD600 0.01, average +/- SD. The procedure: (§1) A haploid strain of Saccharomyces cerevisiae containing a PDR5 deletion mutation (strain #2409) was obtained from Open Biosystems (Huntsville, Ala.) The deletion strain was made as part of the Saccharomyces Genome Deletion Project described in Winzeler al. (Science, 285:901-906, (1999)). […] The inoculum OD600 was 0.01. […] Duplicate cultures of each strain were tested.

For test [4], the system named is haploid strain containing a PDR5 deletion mutation (strain #2409). Nature of the test: Growth yield (OD600) of haploid PDR5 deletion strain in YPD medium with isobutanol. It counts as cell-based, Saccharomyces cerevisiae. The conditions noted are these: for OD600 after 24 hours incubation with isobutanol: haploid PDR5 mutant, YPD, 30° C., inoculum OD600 0.01, average +/- SD; for growth yield of strain with the PDR5 deletion compared to BY4741: haploid, 24 hours. The method, then:
as §1

Like-named read-outs stand apart in the source and are kept apart here.

For `CCCCO` [1-Butanol, 1-butanol], the “OD600 after 23 hours incubation with 1-butanol” value in test [1] (0.625 % w/v 1-butanol) was 3.27 +/− 0.23; in test [1] (0.75 % w/v 1-butanol) it was 0.40 +/− 0.02; in test [1] (0.875 % w/v 1-butanol) it was 0.27 +/− 0.01; in test [2] (0.625 % w/v 1-butanol), 2.38 +/− 0.25; in test [2] (0.75 % w/v 1-butanol), 0.30 +/− 0.03; in test [2] (0.875 % w/v 1-butanol), 0.22 +/− 0.01. The “growth yield of strain with the PDR5 deletion compared to BY4743” value in test [1] (0.625% w/v 1-butanol, 23 hours) came out at 1.4 fold; in test [1] (0.75% w/v 1-butanol, 23 hours) it was 1.3 fold; in test [1] (0.875% w/v 1-butanol, 23 hours) it was 1.2 fold.

Take `CC(C)CO` [Isobutanol, isobutanol]: the “OD600 after 24 hours incubation with isobutanol” value (shortened to “OD600 after 24 hours incubation”) is recorded as 7.51 +/− 0.11 in test [1] (0.25 % w/v isobutanol); 7.17 +/− 0.12 in test [1] (0.5 % w/v isobutanol); 4.91 +/− 0.29 in test [1] (0.75 % w/v isobutanol); 1.67 +/− 0.13 in test [1] (0.825 % w/v isobutanol); 0.16 +/− 0.01 in test [1] (1 % w/v isobutanol); 2.68 +/− 0.07 in test [3] (0.75 % w/v isobutanol). The “OD600 after 24 hours incubation” value in test [3] (0.875 % w/v isobutanol) is on record as 0.692 +/− 0.04; in test [3] (1 % w/v isobutanol) it was 0.09 +/− 0.02; in test [4] (0.75 % w/v isobutanol) it was 4.71 +/− 0.53; in test [4] (0.875 % w/v isobutanol) it was 2.45 +/− 0.42; in test [4] (1 % w/v isobutanol) it was 0.76 +/− 0.13; in test [2] (0.25 % w/v isobutanol), 7.36 +/− 0.04. Moreover, the “OD600 after 24 hours incubation” value in test [2] (0.5 % w/v isobutanol) is 6.62 +/− 0.24; in test [2] (0.75 % w/v isobutanol), 1.84 +/− 0.36; in test [2] (0.825 % w/v isobutanol), 0.19 +/− 0.03; in test [2] (1 % w/v isobutanol), 0.08 +/− 0.01. The “growth yield of strain with the PDR5 deletion compared to BY4743” value in test [1] (0.75% w/v isobutanol, 24 hours) was found to be 2.7 fold; in test [1] (0.825% w/v isobutanol, 24 hours), 8.8 fold. In addition, the entries for the “growth yield of strain with the PDR5 deletion compared to BY4741” value in test [4] (0.75% w/v isobutanol), in test [4] (0.825% w/v isobutanol) and in test [4] (1% w/v isobutanol) were 1.8 fold, 3.5 fold and 8 fold, respectively.

The values are drawn from patent publication US8614085B2, “Yeast with increased butanol tolerance involving a multidrug efflux pump gene” (Butamax(TM) Advanced Biofuels LLC, priority 2009, dated 2013).
